Measurements taken from paper PMC11497205, “Gold(I) Complexes Based on Nonsteroidal Anti-Inflammatory Derivatives as Multi-Target Drugs against Colon Cancer” (Inorganic Chemistry, 2024).

Columns and labels:
COX-1 = target: T1, COX-1 (Homo sapiens, UniProt P23219); experiment: Intracellular COX-1 activity, kit on Caco-2/TC7 cell lysates; type: cell-based; settings: Caco-2/TC7 cells, 24 h incubation with 20 μM of free ligands, mean ± SEM
T1 construct: a cyclooxygenase activity assay kit starting from Caco-2/TC7 cell lysates was used; endogenous in cells; host or cells: Caco-2/TC7 (human colon carcinoma)
T1 sequence (P23219 24-599): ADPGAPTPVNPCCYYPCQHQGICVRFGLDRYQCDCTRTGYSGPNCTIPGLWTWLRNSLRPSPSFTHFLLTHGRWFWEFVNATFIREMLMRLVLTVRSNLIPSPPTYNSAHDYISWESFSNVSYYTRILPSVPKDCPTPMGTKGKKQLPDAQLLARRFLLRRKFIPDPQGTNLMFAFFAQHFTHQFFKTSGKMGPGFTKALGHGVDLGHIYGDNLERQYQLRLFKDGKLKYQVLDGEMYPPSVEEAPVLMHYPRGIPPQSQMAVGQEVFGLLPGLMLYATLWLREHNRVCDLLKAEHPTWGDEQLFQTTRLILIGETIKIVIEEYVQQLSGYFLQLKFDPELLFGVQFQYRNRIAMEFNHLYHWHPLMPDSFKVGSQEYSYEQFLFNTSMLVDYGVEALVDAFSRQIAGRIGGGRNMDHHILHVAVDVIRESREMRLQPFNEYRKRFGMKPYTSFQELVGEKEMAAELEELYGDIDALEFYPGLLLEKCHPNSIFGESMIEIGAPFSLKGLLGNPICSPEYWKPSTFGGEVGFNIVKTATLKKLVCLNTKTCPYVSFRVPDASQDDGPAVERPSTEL
From the text: (§1) Previous studies have shown that modifications in the structure of the naproxen molecule have led to effective inhibition of COX-2, with a high degree of selectivity compared to the COX-1 isoform.[63],[64] Thus, we have tested the inhibitory activity of the best active compounds [Au(L3)(JohnPhos)] […] For this purpose, a cyclooxygenase activity assay kit starting from Caco-2/TC7 cell lysates was used, aiming to develop a new class of inhibitors that present a balanced COX-1/COX-2 inhibition to control the severe side effects resulting from nonselective COX inhibition. Inhibition of COX enzymes is expressed as the percentage of inhibition relative to control COX-1 or COX-2 activity. […] Complex [Au(L4)(JohnPhos)] […] This fact underscores the importance of the coordination of the metal center to the NSAID derivative, since the presence of the gold center is essential for achieving selectivity toward the COX-2 isoform, similar to what is observed in other gold compounds for different biomolecules.[65],[66]
(§2) The interaction of metal complexes with the enzyme cyclooxygenase was analyzed using a cyclooxygenase (COX) Activity Assay Kit (fluorometric) (AB204699 Abcam Inc. Massachusetts, USA). The procedural guidelines of the supplied kit were followed. The reaction commenced with the introduction of AA.

COX-2 = target: T2, COX-2 (Homo sapiens, UniProt P35354); experiment: Intracellular COX-2 activity, kit on Caco-2/TC7 cell lysates; type: cell-based; settings: Caco-2/TC7 cells, 24 h incubation with 20 μM of free ligands, mean ± SEM
T2 construct: a cyclooxygenase activity assay kit starting from Caco-2/TC7 cell lysates was used; endogenous in cells; host or cells: Caco-2/TC7 (human colon carcinoma)
T2 sequence (P35354 18-604): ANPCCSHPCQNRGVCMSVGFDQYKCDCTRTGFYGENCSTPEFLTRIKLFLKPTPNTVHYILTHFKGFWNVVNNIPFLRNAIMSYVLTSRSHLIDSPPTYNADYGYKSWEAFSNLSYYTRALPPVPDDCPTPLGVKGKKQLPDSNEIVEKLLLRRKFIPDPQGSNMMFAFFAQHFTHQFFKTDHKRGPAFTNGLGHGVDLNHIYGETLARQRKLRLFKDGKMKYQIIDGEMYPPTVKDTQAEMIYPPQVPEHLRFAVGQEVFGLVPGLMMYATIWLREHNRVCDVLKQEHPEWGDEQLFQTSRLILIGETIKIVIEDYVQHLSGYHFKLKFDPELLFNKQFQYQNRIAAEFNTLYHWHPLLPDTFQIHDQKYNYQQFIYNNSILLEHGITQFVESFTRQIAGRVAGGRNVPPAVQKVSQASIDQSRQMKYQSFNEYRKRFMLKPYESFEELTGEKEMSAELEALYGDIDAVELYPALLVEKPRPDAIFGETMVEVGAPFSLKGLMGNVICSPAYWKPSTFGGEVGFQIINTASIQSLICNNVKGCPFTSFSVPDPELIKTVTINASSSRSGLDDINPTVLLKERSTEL
From the text: as §1, §2

[1] = Distribution coefficient log D7.4; type: physicochemical; settings: pH 7.4
From the text: Table 1 Distribution Coefficients and IC50 (μM) ^b Values of the Complexes on Caco-2/TC7 Cancer Cells Compared with Auranofin ^a | column: log D7.4

Caco-2/TC7 cells = experiment: MTT antiproliferative assay on Caco-2/TC7 colon cancer cells; type: cell-based, human; settings: 72 h incubation, undifferentiated cells, mean ± SE
From the text: The antiproliferative effect of the reference drug auranofin was included as positive control. […] However, the coordination of the gold-phosphane unit to these ligands derived from NSAIDs leads to much more cytotoxic complexes, as can be observed in Table 1 with IC50 values in the range of that found in auranofin or even lower values for complexes [Au(L1)(CyJohnPhos)] (1a), [Au(L4)(CyJohnPhos)] […] This fact has already been observed previously in related gold complexes with an alkyne ligand derived from naproxen molecule,[43] which makes naproxen an excellent pharmacophore when coordinated to gold(I).
The human Caco-2 cell line (TC7 clone) was kindly provided by Dr. Edith Brot-Laroche (Université Pierre et Marie Curie-Paris 6, UMR S 872, Les Cordeliers, France), Human epithelial fibroblast cells (NHDF-Ad, Lonza, Porriño, Spain) were kindly provided by Dr. Gracia Mendoza (Aragon Health Research Institute, IIS Aragón, Spain). Caco-2 cells (passages 36–48) and fibroblasts (passages 10–20) were maintained in a humidified atmosphere of 5% CO2 at 37 °C in Dulbecco’s Modified Eagles medium (DMEM) (Gibco Invitrogen. Paisley. UK) supplemented with 20% fetal bovine serum, 1% nonessential amino acids, 1% penicillin (1000 U/mL), 1% streptomycin ([…]) and 1% amphotericin (250 U/mL). The Caco-2 cells were subcultured in 25 cm^2 plastic flasks at a density of 3 × 10^5 cells/cm^2, while the fibroblasts were subcultured on 75 cm^2 plastic flasks at a density of 1 × 10^4 cells/cm^2. The culture medium was replaced every 2 days.
The gold complexes were diluted in dimethyl sulfoxide (DMSO) as a 10 mM stock solution and then diluted in a cell culture medium at the desired concentrations. For the cytotoxicity screening assays, Caco-2 cells were seeded in 96-well plates at a density of 4 × 10^3 cells/well. […] The antiproliferative effect was measured using an MTT assay, as previously described by Marmol et al.[93] The absorbance at 540/620 nm was measured using a SPECTROstar Nano (BMG Labtech. Ortenberg. Germany). […]

| Compound | Percent inhibition of COX-1 (COX-1) [%] | Percent inhibition of COX-2 (COX-2) [%] | log D7.4 [1] | IC50 (Caco-2/TC7 cells) [nM] |
| --- | --- | --- | --- | --- |
| COC(=O)[C@H](CCSC)NC(=O)C(C)c1ccc(CC(C)C)cc1 (stereo partly drawn) [L2, Methyl (2-(4-Isobutylphenyl)propanoyl)methioninate] | 15.9 ± 7.3 | 55.8 ± 8.1 | – | – |
| COC(=O)[C@H](CCSC)NC(=O)c1ccccc1Nc1cccc(C)c1C [L1, Methyl (2-((2,3-Dimethylphenyl)amino)benzoyl)methioninate] | 15.2 ± 5.7 | 63.1 ± 8.9 | – | – |
| CC[PH](CC)(CC)[Au][S][C@@H]1O[C@H](COC(C)=O)[C@@H](OC(C)=O)[C@H](OC(C)=O)[C@H]1OC(C)=O [Auranofin, reference compound] | – | – | –2.53 | 1800 ± 100 |
| COC(=O)C(CCSC)NC(=O)Cc1c(C)n(C(=O)c2ccc(Cl)cc2)c2ccc(OC)cc12 (stereo not drawn) [L3] | 22.9 ± 10.7 | 53.6 ± 14.3 | – | – |
| COC(=O)[C@H](CCSC)NC(=O)[C@@H](C)c1ccc2cc(OC)ccc2c1 [L4, Methyl ((S)-2-(6-Methoxynaphthalen-2-yl)propanoyl)methioninate] | 36.9 ± 7.6 | 44.7 ± 13.4 | – | – |
| CC#N.CC(C)(C)P(c1ccccc1-c1ccccc1)C(C)(C)C.[Au+].[F][Sb-]([F])([F])([F])([F])[F] [[Au(MeCN)(JohnPhos)]SbF6, reference compound] | – | – | – | 900 ± 760 |
| CC#N.[Au+].[F][Sb-]([F])([F])([F])([F])[F].c1ccc(-c2ccccc2P(C2CCCCC2)C2CCCCC2)cc1 [[Au(MeCN)(CyJohnPhos)]SbF6, reference compound] | – | – | – | 1240 ± 670 |
